Laboratory results from ChEMBL document CHEMBL4052758, “Design, synthesis, biological evaluation and molecular modelling studies of novel diaryl substituted pyrazolyl thiazolidinediones as potent pancreatic lipase inhibitors” (Bioorg Med Chem Lett, 2017).

B1: Pancreatic triacylglycerol lipase (Sus scrofa), P00591 (protein)
chain: SEVCFPRLGCFSDDAPWAGIVQRPLKILPWSPKDVDTRFLLYTNQNQNNYQELVADPSTITNSNFRMDRKTRFIIHGFIDKGEEDWLSNICKNLFKVESVNCICVDWKGGSRTGYTQASQNIRIVGAEVAYFVEVLKSSLGYSPSNVHVIGHSLGSHAAGEAGRRTNGTIERITGLDPAEPCFQGTPELVRLDPSDAKFVDVIHTDAAPIIPNLGFGMSQTVGHLDFFPNGGKQMPGCQKNILSQIVDIDGIWEGTRDFVACNHLRSYKYYADSILNPDGFAGFPCDSYNVFTANKCFPCPSEGCPQMGHYADRFPGKTNGVSQVFYLNTGDASNFARWRYKVSVTLSGKKVTGHILVSLFGNEGNSRQYEIYKGTLQPDNTHSDEFDSDVEVGDLQKVKFIWYNNNVINPTLPRVGASKITVERNDGKVYDFCSQETVREEVLLTLNPC

Tests used:
[1] = species on record: Sus scrofa; assay: Inhibition of porcine pancreatic lipase type 2 assessed as residual enzyme activity using tributyrin as substrate preincubated for 30 mins followed by substrate addition measured for 5 mins
[2] = biological target: T1, Pancreatic triacylglycerol lipase (Sus scrofa, UniProt P00591); assay: Binding affinity to porcine pancreatic lipase using p-nitrophenyl butyrate as substrate by dixon plot analysis
T1 sequence (P00591 whole entry): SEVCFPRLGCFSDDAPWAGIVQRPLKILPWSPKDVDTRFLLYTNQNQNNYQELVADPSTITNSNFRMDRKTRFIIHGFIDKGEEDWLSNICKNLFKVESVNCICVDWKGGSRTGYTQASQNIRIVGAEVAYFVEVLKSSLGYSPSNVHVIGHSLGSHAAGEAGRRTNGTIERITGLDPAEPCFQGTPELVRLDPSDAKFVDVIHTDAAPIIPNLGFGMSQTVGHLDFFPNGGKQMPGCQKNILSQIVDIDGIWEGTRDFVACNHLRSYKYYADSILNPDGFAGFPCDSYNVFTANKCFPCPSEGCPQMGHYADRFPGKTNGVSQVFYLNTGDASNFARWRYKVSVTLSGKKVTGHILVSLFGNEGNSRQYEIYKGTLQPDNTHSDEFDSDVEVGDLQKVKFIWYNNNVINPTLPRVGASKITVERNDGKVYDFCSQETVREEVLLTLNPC

[3] = biological target: T1, Pancreatic triacylglycerol lipase; assay: Inhibition of porcine pancreatic lipase using p-nitrophenyl butyrate as substrate preincubated for 5 mins followed by substrate addition measured after 5 mins by spectrophotometric analysis
[4] = compound: O=C1S/C(=C\c2cn(-c3ccccc3)nc2-c2ccc(Cl)cc2)C(=O)N1Cc1ccc([N+](=O)[O-])cc1; assay: Reversible competitive inhibition of porcine pancreatic lipase assessed as Km for substrate at 10 uM in presence of varying levels of p-nitophenyl butyrate by double reciprocal Lineweaver-burk plot analysis (reference value: 69.32 microM); settings: Sus scrofa
[5] = compound: O=C1S/C(=C\c2cn(-c3ccccc3)nc2-c2ccc(Cl)cc2)C(=O)N1Cc1ccc([N+](=O)[O-])cc1; assay: Reversible competitive inhibition of porcine pancreatic lipase assessed as Km for substrate at 5 uM in presence of varying levels of p-nitophenyl butyrate by double reciprocal Lineweaver-burk plot analysis (reference value: 69.32 microM); settings: Sus scrofa
[6] = compound: O=C1S/C(=C\c2cn(-c3ccccc3)nc2-c2ccc(Cl)cc2)C(=O)N1Cc1ccc([N+](=O)[O-])cc1; assay: Reversible competitive inhibition of porcine pancreatic lipase assessed as Km for substrate at 2.5 uM in presence of varying levels of p-nitophenyl butyrate by double reciprocal Lineweaver-burk plot analysis (reference value: 69.32 microM); settings: Sus scrofa
[7] = compound: O=C1S/C(=C\c2cn(-c3ccccc3)nc2-c2ccc(Cl)cc2)C(=O)N1Cc1ccc([N+](=O)[O-])cc1; assay: Reversible competitive inhibition of porcine pancreatic lipase assessed as Vmax for substrate at 10 uM in presence of varying levels of p-nitophenyl butyrate by double reciprocal Lineweaver-burk plot analysis (reference value: 0.0545 microM/min); settings: Sus scrofa
[8] = compound: O=C1S/C(=C\c2cn(-c3ccccc3)nc2-c2ccc(Cl)cc2)C(=O)N1Cc1ccc([N+](=O)[O-])cc1; assay: Reversible competitive inhibition of porcine pancreatic lipase assessed as Vmax for substrate at 5 uM in presence of varying levels of p-nitophenyl butyrate by double reciprocal Lineweaver-burk plot analysis (reference value: 0.0545 microM/min); settings: Sus scrofa
[9] = compound: O=C1S/C(=C\c2cn(-c3ccccc3)nc2-c2ccc(Cl)cc2)C(=O)N1Cc1ccc([N+](=O)[O-])cc1; assay: Reversible competitive inhibition of porcine pancreatic lipase assessed as Vmax for substrate at 2.5 uM in presence of varying levels of p-nitophenyl butyrate by double reciprocal Lineweaver-burk plot analysis (reference value: 0.0545 microM/min); settings: Sus scrofa

| Molecule | XI50 [1] | IC50 [3] [µM] | other results |
| --- | --- | --- | --- |
| CCCCCCCCCCC[C@@H](C[C@@H]1OC(=O)[C@H]1CCCCCC)OC(=O)[C@H](CC(C)C)NC=O | 3.72 | – | – |
| O=C1S/C(=C\c2cn(-c3ccccc3)nc2-c2ccc(Cl)cc2)C(=O)N1Cc1ccc([N+](=O)[O-])cc1 | 10 | 4.81 | Ki [2]: 14.4 µM |
| O=C1NC(=O)/C(=C/c2cn(-c3ccccc3)nc2-c2ccc(F)cc2)S1 | 25.4 | 12.9 | – |
| O=C1S/C(=C\c2cn(-c3ccccc3)nc2-c2ccc([N+](=O)[O-])cc2)C(=O)N1Cc1ccc([N+](=O)[O-])cc1 | 18.7 | 8.44 | – |
| O=C1S/C(=C\c2cn(-c3ccccc3)nc2-c2ccccc2)C(=O)N1Cc1ccc([N+](=O)[O-])cc1 | 21.8 | 12.5 | – |
| COc1ccc(-c2nn(-c3ccccc3)cc2/C=C2\SC(=O)N(Cc3ccc([N+](=O)[O-])cc3)C2=O)cc1 | 18.1 | 9.4 | – |
| Cc1ccc(-c2nn(-c3ccccc3)cc2/C=C2\SC(=O)N(Cc3ccc([N+](=O)[O-])cc3)C2=O)cc1 | 19.3 | 9.87 | – |
| COc1ccc(-c2nn(-c3ccccc3)cc2/C=C2\SC(=O)NC2=O)cc1 | 24.4 | 13 | – |
| Cc1ccc(-c2nn(-c3ccccc3)cc2/C=C2\SC(=O)NC2=O)cc1 | 27.2 | 15.1 | – |
| O=C1NC(=O)/C(=C/c2cn(-c3ccccc3)nc2-c2ccc([N+](=O)[O-])cc2)S1 | 39.5 | 17.3 | – |
| O=C1NC(=O)/C(=C/c2cn(-c3ccccc3)nc2-c2ccccc2)S1 | 65.1 | 18.8 | – |
| O=C1NC(=O)/C(=C/c2cn(-c3ccccc3)nc2-c2ccc(Cl)cc2)S1 | 19.3 | 10.3 | – |
| O=C1S/C(=C\c2cn(-c3ccccc3)nc2-c2ccc(F)cc2)C(=O)N1Cc1ccc([N+](=O)[O-])cc1 | 13 | 5.42 | – |
| B1 | – | – | Km [4]: 165 µM; Km [5]: 145 µM; Km [6]: 125 µM; Vmax [7]: 0.0566 µM/min; Vmax [8]: 0.0557 µM/min; Vmax [9]: 0.0565 µM/min |
